These results are taken from US20240000777A1, “USE OF AN ERK INHIBITOR FOR THE TREATMENT OF MYELOFIBROSIS” (Novartis AG, priority 2020, published 2024).

Assay [1] relates to JAK2V617F PV/MF mouse model. The format is in vivo. The following applies: oral, 14 consecutive days, ruxolitinib 60 mg/kg BID, Compound A 75 mg/kg QD.
In assay [2] the test system is Jak2V617F Erk1-/- Erk2 fl/fl Mx-Cre mice. Kind of assay: Genetic deletion of ERK1/2 plus ruxolitinib in Jak2V617F MPN mouse model. The format is in vivo. The following applies: ruxolitinib for 2 weeks combined with ERK1/2 deletion. The text has this:
Jak2V617F Mx-Cre mouse was crossed with Erk1−/− Erk2 fl/fl Mx-Cre mice to genetically delete ERK1/2 to obtain Jak2V617F Erk1−/− Erk2 fl/fl Mx-Cre offspring.

For `CNC[C@@H](NC(=O)c1ccc(-c2nc([C@H]3CC[C@H](O)[C@@H](F)C3)cnc2N)cc1F)c1cc(F)cc(Br)c1` [Compound A, 4-(3-amino-6-((1S,3S,4S)-3-fluoro-4-hydroxycyclohexyl)pyrazin-2-yl)-N—((S)-1-(3-bromo-5-fluorophenyl)-2-(methylamino)ethyl)-2-fluorobenzamide], the polycythemia result in assay [1] is listed as “significantly normalizes”. Further, the elevated hematocrit entry in assay [1] (FIG. 3A) is given as “significantly normalizes”. In addition, the splenomegaly result in assay [1] (FIG. 3B) is given as “significantly normalizes”.

On to `N#CC[C@H](C1CCCC1)n1cc(-c2ncnc3[nH]ccc23)cn1` [ruxolitinib, (R)-3-(4-(7H-pyrrolo[2,3-d]pyrimidin-4-yl)-1H-pyrazol-1-yl)-3-cyclopentylpropanenitrile], for which, in assay [2] (FIG. 7B), the “normalizing red blood cell count” value is on record as “more effective”. Also, in assay [2] (versus single interventions, FIG. 7A), the “reducing the mutant clone” value is “more effective”.
